This passage reports IC50 and inhibition results from patent publication US20100130522A1, “COMPOUNDS FOR INFLAMMATION AND IMMUNE-RELATED USES” (Synta Pharmaceuticals Corp., priority 2008, published 2010).

Experiment [1] has as its system IL-2 production, Jurkat cells. Description: Inhibition of IL-2 production in PHA-activated Jurkat cells (ELISA). In kind it is cell-based. The conditions noted are these: Homo sapiens, 1% FBS, given as activity class. The procedure:
Jurkat cells were placed in a 96 well plate (0.5 million cells per well in 1% FBS medium), and then a test compound of this invention was added at different concentrations. After 10 minutes, the cells were activated with PHA (final concentration 2.5 μg/mL) and incubated for 20 hours at 37° C. under 5% CO2. The final volume was 200 μL. Following incubation, the cells were centrifuged, and the supernatants collected and stored at −70° C. prior to assaying for IL-2 production. A commercial ELISA kit (IL-2 Eli-pair, Diaclone Research, Besancon, France) was used to detect production of IL-2, from which dose response curves were obtained. The IC50 value was calculated as the concentration at which 50% of maximum IL-2 production after stimulation was inhibited versus a non-stimulation control.

The target in the next experiment is T1, CRACM1/STIM1-CHOK1 (Homo sapiens, UniProt Q96D31).
T1 construct: Full length human Stim1, CracM1, CracM2 and CracM3 cDNA; Stim1 induced with doxycycline
T1 sequence (Q96D31 whole entry): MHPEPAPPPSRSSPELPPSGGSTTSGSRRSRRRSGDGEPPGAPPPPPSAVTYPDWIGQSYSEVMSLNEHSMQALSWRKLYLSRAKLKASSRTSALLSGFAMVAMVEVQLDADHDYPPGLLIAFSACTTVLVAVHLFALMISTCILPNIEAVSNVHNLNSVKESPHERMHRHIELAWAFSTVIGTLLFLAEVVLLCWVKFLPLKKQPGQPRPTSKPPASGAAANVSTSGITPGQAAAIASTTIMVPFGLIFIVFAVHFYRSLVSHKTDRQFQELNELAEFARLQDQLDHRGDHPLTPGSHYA
The experiment is described as follows: Patch clamp inhibition of ICRAC current in CRACM1/STIM1-CHOK1 cells. In kind it is cell-based. The conditions noted are these: 500 nM; given as activity class. The procedure:
Manual patch clamp experiments are conducted in the tight-seal whole-cell configuration at room temperature (21-25° C.). Patch pipettes are fashioned from borosilicate glass capillary tubes and have resistances between 2-4 MΩ after filling with standard intracellular solution. High resolution current recordings are acquired with a computer-based patch clamp amplifier system (EPC-10, HEKA, Lambrecht, Germany). All voltages are corrected for a liquid junction potential of 10 mV between external and internal solutions with glutamate as the intracellular anion. Currents are filtered at 2.9 kHz and digitized at 10 μs intervals. Capacitive currents and series resistance are determined and corrected before each voltage ramp using the automatic capacitance compensation of the EPC-10.
Automated patch clamp experiments are conducted with the QPatch 16 (Sophion Bioscience, Ballerup, Denmark) at room temperature (21-25° C.). Immediately following the establishment of giga-seal whole-cell configuration, the cells membrane potential is clamped at 0 mV. Voltage ramps of 50 ms duration spanning the voltage range of −100 to +100 mV are then stimulated at a rate of 0.33 Hz. Currents are filtered at 2.9 kHz and digitized at 200 μs intervals. Capacitive currents and series resistance are determined and corrected before each voltage ramp using the automatic capacitance compensation.
In general, a whole cell patch clamp method is used to examine the effects of a compound of the invention on a channel(s) that mediates ICRAC. In such experiments, a baseline ICRAC measurement is established within the first 70 voltage ramps, or 140 seconds, for a patched cell. Then the cells are perfused with the compound to be tested and the effect of the compound on ICRAC is measured for at least an additional 440 to 500 seconds. A compound that modulates ICRAC (e.g., inhibits) is a compound that is useful in the invention for modulating CRAG ion channel activity.
Off-line analysis with the Heka PatchMaster software is used to separate the ICRAC membrane current from the cells basal background currents. In a typical recording, InsP3 stimulated ICRAC currents begin to develop in 6 to 12 seconds after whole cell is established. Therefore, the first 1-4 voltage ramps represent the basal membrane currents in the absence of ICRAC and the average value is subtracted from all subsequent traces. The current value at −80 mV for each ramp trace is then measured and plotted against time. The resulting current versus time data is exported into a Microsoft Excel spreadsheet. The % ICRAC inhibition in each cell is calculated by comparing the amount of current just prior to the compound perfusion to the amount of current after the cells has been perfused with the compound for 440-500 seconds. The IC50 value and Hill coefficient for each compound is estimated by fitting all the individual data points to a single-site Hill equation.
TREx™-CHO cells were transfected with human Stim1 (recombinant DNA in pcDNA4/TO/myc-His™ A with a myc epitope tag in the N-terminal) and either CracM1, CracM2 or CracM3 (recombinant DNA in pcDNA 3.1 with a HA epitope tag in the N-terminal). Stably expressing cells were selected by growing the transfected cells in antibiotics for two to three weeks. Individual cell clones were isolated via serial dilution. Full length human Stim1, CracM1, CracM2 and CracM3 cDNA, TREx™-CHO cells, pcDNA4/TO/myc-His™ A and pcDNA 3.1 were purchased from Invitrogen (Carlsbad, Calif.). All cells clones are grown in Ham's F-12 media supplemented with 10% fetal bovine serum, penicillin 100 U/ml, streptomycin 100 ? g/ml, Zeocin™ (200 ? g/ml), Geneticin (500 ? g/ml) and blasticidin (10 ? g/ml) in an atmosphere of 95% air/5% CO2. Stim1 expression was induced with doxycycline (1 ? g/ml) for 16-20 hrs. […]

Molecules are shown by their SMILES. pIC50: −log10 of the molar value.

In experiment [1], `Cc1ccc(CCc2cccnc2)cc1-c1ccc(NC(=O)c2c(F)cccc2F)cc1` [Compound 15, 2,6-difluoro-N-(2′-methyl-5′-(2-(pyridin-3-yl)ethyl)biphenyl-4-yl)benzamide] showed a negative-log IC50 (pIC50) of over 7.30. At CRACM1/STIM1-CHOK1, this compound displayed an inhibition at 0.5 µM of 70 to 100%.

The compound `Cc1ccc(Oc2cccnc2)cc1-c1ccc(NC(=O)c2c(F)cccc2F)nc1` [Compound 7, 2,6-difluoro-N-(5-(2-methyl-5-(pyridin-3-yloxy)phenyl)-pyridin-2-yl)benzamide] showed a negative-log IC50 (pIC50) in experiment [1] of over 7.30. This compound yielded an inhibition at 0.5 µM at CRACM1/STIM1-CHOK1 of 70 to 100%.

For `Cc1ccc(Oc2cccnc2)cc1-c1cnc(NC(=O)c2c(F)cccc2F)cn1` [Compound 8, 2,6-difluoro-N-(5-(2-methyl-5-(pyridin-3-yloxy)phenyl)-pyrazin-2-yl)benzamide], the pIC50 in experiment [1] is over 7.30. This compound showed an inhibition at 0.5 µM on CRACM1/STIM1-CHOK1 of 70 to 100%.

`Cc1ccc(Nc2ccccn2)cc1-c1ccc(NC(=O)c2c(F)cccc2F)cc1` [Compound 3, 2,6-difluoro-N-(2′-methyl-5′-(pyridin-2-ylamino)biphenyl-4-yl)benzamide]: the pIC50 in experiment [1] was over 7.30. The same compound showed an inhibition at 0.5 µM at CRACM1/STIM1-CHOK1 of 50 to 70%.

For the compound `Cc1cnc(Oc2ccc(Cl)c(-c3ccc(NC(=O)c4c(F)cccc4F)cc3)c2)s1` [Compound 10, N-(2′-chloro-5′-(5-methylthiazol-2-yloxy)biphenyl-4-yl)-2,6-difluorobenzamide], in experiment [1], the negative logarithm of the IC50 (pIC50) was 7.00 to 7.30. Further, the inhibition at 0.5 µM against CRACM1/STIM1-CHOK1 fell in the range of 70 to 100%.

Turning to `Cc1ccc(CCc2cccnc2)cc1-c1cnc(NC(=O)c2c(F)cccc2F)cn1` [Compound 16, 2,6-difluoro-N-(5-(2-methyl-5-(2-(pyridin-3-yl)ethyl)phenyl)-pyrazin-2-yl)benzamide], the pIC50 in experiment [1] is over 7.30. Further, on CRACM1/STIM1-CHOK1, the inhibition at 0.5 µM is 50 to 70%.

Usually pIC50 stands for −log10 of the IC50, conventionally taken in molar units. Read a high pIC50 as a low IC50. A word on the inhibition: it is the relative decrease from the control value, in per cent. Low values mean little suppression, high ones strong suppression.
